Experimental findings from ChEMBL document CHEMBL1909046, “DrugMatrix in vitro pharmacology data” are described below.

Data set [1] can be described thus: DRUGMATRIX: GABAA, Chloride Channel, TBOB radioligand binding (ligand: [3H] TBOB). Format: cell membranes, Rattus norvegicus, Wistar, Cerebral cortex, Membrane. The note with it: Not Active = under 50% inhibition at 10 µM.
A further data set deals with T1, Cytochrome P450 2A6 (Homo sapiens, UniProt P11509).
T1 sequence (P11509 whole entry): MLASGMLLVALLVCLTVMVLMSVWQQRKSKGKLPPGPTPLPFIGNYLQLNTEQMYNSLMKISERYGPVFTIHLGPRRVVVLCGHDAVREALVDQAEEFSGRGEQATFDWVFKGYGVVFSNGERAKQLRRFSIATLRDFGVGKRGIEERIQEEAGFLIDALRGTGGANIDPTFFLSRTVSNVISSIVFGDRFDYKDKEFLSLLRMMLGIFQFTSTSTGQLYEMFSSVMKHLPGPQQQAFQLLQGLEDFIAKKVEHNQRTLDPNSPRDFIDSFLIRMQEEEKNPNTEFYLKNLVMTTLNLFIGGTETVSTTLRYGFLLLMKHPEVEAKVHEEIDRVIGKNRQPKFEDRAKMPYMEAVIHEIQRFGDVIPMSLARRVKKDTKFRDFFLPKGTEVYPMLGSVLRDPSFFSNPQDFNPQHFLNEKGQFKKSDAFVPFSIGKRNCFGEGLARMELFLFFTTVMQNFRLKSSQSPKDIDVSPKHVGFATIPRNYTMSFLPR
The note with it: bti-tn-5b1-4.

For another data set, the target named is T2, Leukotriene C4 synthase (Cavia porcellus, UniProt A6XA80).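 Further: enzyme inhibition assay of leukotriene C4 synthase, using LTA4 as the substrate; in other assays of this panel Not Active means under 50% inhibition at 10 µM.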
T2 sequence (A6XA80 whole entry): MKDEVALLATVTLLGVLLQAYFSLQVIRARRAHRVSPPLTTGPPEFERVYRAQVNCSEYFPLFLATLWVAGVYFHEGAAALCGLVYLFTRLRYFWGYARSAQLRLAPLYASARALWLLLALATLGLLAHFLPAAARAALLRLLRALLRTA
In words: biochemical. The class given is tissue-based, Lung.

A short description of data set [2]: DRUGMATRIX: Serotonin (5-Hydroxytryptamine) 5-HT3 radioligand binding (ligand: [3H] GR-65630). Format: cell membranes, Membrane. The note with it: hek293; Not Active = under 50% inhibition at 10 µM.
Data set [3] has as its target Aldo-keto reductase family 1 member B1 (Rattus norvegicus, UniProt P07943). The class given is tissue-based, Lens of camera-type eye.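 Further: inhibition of aldose reductase enzyme activity, measured with DL-glyceraldehyde as the substrate; in other assays of this panel Not Active means under 50% inhibition at 10 µM.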
The next data set concerns the target Mu-type opioid receptor (Homo sapiens, UniProt P35372). Kind of data set: DRUGMATRIX: Opiate mu (OP3, MOP) radioligand binding (ligand: [3H] Diprenorphine). The class given is cell membranes, CHO-K1, Membrane. The note with it: cho-k1; Not Active = under 50% inhibition at 10 µM.
Data set [4] can be described thus: DRUGMATRIX: Leukotriene, BLT (LTB4) radioligand binding (ligand: [3H]LTB4). The class given is cell membranes, Membrane. The note with it: u-937; Not Active = under 50% inhibition at 10 µM.
Data set [5] addresses T3, 5-hydroxytryptamine receptor 2C (Homo sapiens, UniProt P28335).
T3 sequence (P28335 whole entry): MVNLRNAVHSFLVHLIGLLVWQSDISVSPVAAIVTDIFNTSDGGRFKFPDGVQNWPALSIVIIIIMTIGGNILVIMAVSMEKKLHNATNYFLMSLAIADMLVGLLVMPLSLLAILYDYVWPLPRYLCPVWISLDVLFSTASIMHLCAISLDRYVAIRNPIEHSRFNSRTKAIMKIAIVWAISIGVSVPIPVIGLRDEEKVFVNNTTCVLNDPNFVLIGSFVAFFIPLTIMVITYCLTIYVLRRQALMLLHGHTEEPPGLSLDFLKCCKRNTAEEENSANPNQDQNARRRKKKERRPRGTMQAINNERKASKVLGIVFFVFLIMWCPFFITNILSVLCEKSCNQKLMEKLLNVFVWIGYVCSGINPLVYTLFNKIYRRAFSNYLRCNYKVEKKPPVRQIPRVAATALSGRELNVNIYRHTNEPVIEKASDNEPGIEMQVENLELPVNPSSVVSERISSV
Kind of data set: DRUGMATRIX: Serotonin (5-Hydroxytryptamine) 5-HT2C radioligand binding (ligand: [3H] Mesulergine). Format: cell membranes, CHO-K1, Membrane. The note with it: cho-k1; Not Active = under 50% inhibition at 10 µM.

Another data set has as its target Melanocortin receptor 3 (Homo sapiens, UniProt P41968). The class given is cell membranes, Membrane. The note with it: hek293. Further: in other assays of this panel Not Active means under 50% inhibition at 10 µM.
Data set [6] concerns the target Delta-type opioid receptor (Homo sapiens, UniProt P41143). Format: cell membranes, HEK293, Membrane. The note with it: hek293. Further: in other assays of this panel Not Active means under 50% inhibition at 10 µM.
For data set [7], the target named is T4, Muscarinic acetylcholine receptor M5 (Homo sapiens, UniProt P08912). Further: in other assays of this panel Not Active means under 50% inhibition at 10 µM.
T4 sequence (P08912 whole entry): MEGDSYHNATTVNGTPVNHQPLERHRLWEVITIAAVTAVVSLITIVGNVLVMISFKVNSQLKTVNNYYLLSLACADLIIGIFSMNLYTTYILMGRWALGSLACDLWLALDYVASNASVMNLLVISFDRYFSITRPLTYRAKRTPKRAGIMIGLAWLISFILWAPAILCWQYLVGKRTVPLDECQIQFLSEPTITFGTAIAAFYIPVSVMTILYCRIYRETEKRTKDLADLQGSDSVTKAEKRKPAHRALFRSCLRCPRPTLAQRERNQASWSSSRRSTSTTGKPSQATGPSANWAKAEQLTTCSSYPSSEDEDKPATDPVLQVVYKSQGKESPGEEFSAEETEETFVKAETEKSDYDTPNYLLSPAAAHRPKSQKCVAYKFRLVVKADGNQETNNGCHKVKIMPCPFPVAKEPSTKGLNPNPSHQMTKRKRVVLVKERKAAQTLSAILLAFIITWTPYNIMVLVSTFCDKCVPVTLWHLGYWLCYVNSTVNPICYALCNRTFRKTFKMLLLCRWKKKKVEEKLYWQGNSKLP
Format: cell membranes, CHO-K1, Membrane. The note with it: cho-k1.

The nature of data set [8]: DRUGMATRIX: Glutamate, NMDA, Agonism radioligand binding (ligand: [3H] CGP-39653). The class given is cell membranes, Rattus norvegicus, Wistar, Cerebral cortex, Membrane. The note with it: Not Active = under 50% inhibition at 10 µM.
Data set [9] has as its target T5, 5-hydroxytryptamine receptor 1A (Rattus norvegicus, UniProt P19327). Further: in other assays of this panel Not Active means under 50% inhibition at 10 µM.
T5 sequence (P19327 whole entry): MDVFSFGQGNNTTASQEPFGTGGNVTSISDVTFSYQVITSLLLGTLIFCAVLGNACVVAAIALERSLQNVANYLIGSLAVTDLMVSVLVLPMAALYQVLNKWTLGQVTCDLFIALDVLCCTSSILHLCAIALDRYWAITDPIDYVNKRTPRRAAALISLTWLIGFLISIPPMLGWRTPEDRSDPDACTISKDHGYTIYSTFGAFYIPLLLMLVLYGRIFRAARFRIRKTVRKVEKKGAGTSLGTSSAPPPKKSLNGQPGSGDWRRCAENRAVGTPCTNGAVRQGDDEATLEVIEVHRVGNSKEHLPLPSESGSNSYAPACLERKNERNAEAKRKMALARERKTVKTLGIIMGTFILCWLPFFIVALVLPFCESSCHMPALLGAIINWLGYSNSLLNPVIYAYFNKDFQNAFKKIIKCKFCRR
Format: cell membranes, CHO-K1, Membrane. The note with it: cho-k1.

The next data set has as its target Insulin receptor (Rattus norvegicus, UniProt P15127). Format: cell membranes, Wistar, Liver, Membrane. Further: in other assays of this panel Not Active means under 50% inhibition at 10 µM.

Sequence of Melanocortin receptor 3 (P41968 whole entry): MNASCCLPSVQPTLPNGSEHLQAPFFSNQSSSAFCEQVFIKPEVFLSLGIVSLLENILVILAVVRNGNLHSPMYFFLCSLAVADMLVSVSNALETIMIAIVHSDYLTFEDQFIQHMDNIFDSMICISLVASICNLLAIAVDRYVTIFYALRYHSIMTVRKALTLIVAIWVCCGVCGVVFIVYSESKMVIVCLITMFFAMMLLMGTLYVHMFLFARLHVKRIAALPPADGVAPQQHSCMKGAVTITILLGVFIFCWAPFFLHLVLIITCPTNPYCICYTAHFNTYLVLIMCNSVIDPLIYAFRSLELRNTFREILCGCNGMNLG
Sequence of Mu-type opioid receptor (P35372 whole entry): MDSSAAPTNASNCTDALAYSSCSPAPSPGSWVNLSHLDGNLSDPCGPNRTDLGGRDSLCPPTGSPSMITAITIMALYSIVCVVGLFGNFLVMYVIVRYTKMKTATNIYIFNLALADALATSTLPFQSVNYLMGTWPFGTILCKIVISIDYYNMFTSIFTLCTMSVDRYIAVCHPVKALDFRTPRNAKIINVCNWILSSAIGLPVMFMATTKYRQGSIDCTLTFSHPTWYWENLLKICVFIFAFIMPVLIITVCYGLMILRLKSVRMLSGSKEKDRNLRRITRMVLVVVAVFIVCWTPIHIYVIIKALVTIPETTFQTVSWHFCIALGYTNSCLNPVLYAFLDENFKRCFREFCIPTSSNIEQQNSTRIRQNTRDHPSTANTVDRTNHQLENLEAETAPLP
Sequence of Delta-type opioid receptor (P41143 whole entry): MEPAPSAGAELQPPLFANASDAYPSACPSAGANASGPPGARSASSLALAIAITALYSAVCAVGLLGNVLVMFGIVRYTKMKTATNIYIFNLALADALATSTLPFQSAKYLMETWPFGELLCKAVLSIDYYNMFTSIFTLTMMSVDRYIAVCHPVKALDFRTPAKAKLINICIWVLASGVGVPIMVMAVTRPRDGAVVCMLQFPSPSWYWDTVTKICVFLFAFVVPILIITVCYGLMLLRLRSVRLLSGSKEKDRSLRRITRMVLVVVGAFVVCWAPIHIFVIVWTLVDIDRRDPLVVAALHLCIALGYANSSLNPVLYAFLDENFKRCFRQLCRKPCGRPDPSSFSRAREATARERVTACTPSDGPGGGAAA
Sequence of Insulin receptor (P15127 27-759 limits assumed): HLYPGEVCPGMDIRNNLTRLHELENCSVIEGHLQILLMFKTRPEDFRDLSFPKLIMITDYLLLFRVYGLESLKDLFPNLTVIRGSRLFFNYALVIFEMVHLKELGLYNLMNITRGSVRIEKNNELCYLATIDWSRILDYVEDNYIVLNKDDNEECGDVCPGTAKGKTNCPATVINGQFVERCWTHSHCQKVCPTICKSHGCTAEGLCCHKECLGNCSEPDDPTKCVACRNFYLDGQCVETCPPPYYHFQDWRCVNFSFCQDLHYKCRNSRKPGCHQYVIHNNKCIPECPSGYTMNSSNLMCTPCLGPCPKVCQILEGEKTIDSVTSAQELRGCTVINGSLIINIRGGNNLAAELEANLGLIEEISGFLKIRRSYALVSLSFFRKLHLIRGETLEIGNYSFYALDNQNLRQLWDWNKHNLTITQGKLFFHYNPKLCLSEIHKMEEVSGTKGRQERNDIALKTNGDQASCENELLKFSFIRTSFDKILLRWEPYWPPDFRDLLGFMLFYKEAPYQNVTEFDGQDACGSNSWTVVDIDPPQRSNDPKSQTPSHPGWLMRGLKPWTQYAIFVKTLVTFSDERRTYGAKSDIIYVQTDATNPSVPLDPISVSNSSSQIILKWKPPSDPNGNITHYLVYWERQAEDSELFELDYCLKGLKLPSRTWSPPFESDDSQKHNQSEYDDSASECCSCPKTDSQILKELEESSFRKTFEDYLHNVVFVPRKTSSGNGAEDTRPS
Sequence of Insulin receptor (P15127 764-1383 limits assumed): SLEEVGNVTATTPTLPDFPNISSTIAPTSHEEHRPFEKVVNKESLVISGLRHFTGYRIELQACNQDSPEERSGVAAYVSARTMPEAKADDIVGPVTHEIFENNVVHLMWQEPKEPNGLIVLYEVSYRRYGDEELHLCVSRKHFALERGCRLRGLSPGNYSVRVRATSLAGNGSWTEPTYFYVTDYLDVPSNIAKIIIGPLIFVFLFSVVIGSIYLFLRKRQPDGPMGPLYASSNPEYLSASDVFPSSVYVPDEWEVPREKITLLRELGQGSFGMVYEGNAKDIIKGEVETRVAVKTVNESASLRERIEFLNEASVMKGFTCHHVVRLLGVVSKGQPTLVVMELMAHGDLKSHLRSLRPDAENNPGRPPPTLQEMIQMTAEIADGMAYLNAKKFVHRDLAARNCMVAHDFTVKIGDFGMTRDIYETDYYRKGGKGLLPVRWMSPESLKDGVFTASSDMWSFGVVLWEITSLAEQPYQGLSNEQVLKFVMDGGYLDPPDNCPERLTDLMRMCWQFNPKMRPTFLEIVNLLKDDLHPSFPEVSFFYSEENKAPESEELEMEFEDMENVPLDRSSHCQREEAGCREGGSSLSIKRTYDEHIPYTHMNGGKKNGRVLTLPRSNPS

As for `C[C@](N)(Cc1ccc(O)cc1)C(=O)O` [METYROSINE], the IC50 entry (in data set [1]; against Cytochrome P450 2A6; against Leukotriene C4 synthase; in [2]; in data set [3]; on Mu-type opioid receptor) was “Not Active” each time. Moreover, the IC50 entry (in data set [4]; in data set [5]; at Melanocortin receptor 3; in data set [6]; in data set [7]; in data set [8]) was “Not Active” in each case. In addition, the IC50 result (in [9]; against Insulin receptor) was “Not Active” each time. Further, the inhibitory constant (Ki) result (in data set [1]; at Cytochrome P450 2A6; in data set [2]; in [4]; in data set [8]) was “Not Active” in each case.

Turning to `Clc1ccc(C(c2ccccc2Cl)C(Cl)Cl)cc1` (stereo not given) [MITOTANE], the IC50 entry (in data set [1]; on Cytochrome P450 2A6; against Leukotriene C4 synthase; in [2]; in data set [3]; at Mu-type opioid receptor) was “Not Active” throughout. In addition, the IC50 entry (in data set [4]; in data set [5]; against Melanocortin receptor 3; in data set [6]; in [7]; in data set [8]) was “Not Active” throughout. The IC50 result (in data set [9]; on Insulin receptor) was “Not Active” throughout. Besides, the Ki result (in data set [1]; on Cytochrome P450 2A6; in [2]; in [4]; in data set [8]) was “Not Active” each time.

`COc1c(C)c2c(c(O)c1C/C=C(\C)CCC(=O)OCCN1CCOCC1)C(=O)OC2` [MYCOPHENOLATE MOFETIL]: the IC50 result (in data set [1]; against Cytochrome P450 2A6; on Leukotriene C4 synthase; in data set [2]; in data set [3]; at Mu-type opioid receptor) was “Not Active” throughout. In addition, the IC50 result (in [4]; in data set [5]; at Melanocortin receptor 3; in [6]; in data set [7]; in [8]) was “Not Active” throughout. In addition, the IC50 entry (in data set [9]; against Insulin receptor) was “Not Active” in each case. Also, the Ki entry (in data set [1]; at Cytochrome P450 2A6; in data set [2]; in [4]; in data set [8]) was “Not Active” in each case.

With `CC(=O)[C@H]1CC[C@H]2[C@@H]3CCC4=CC(=O)CC[C@]4(C)[C@H]3CC[C@]12C` [PROGESTERONE], the IC50 (in general, the midpoint of a concentration-inhibition curve) is 24.9 µM in [1] (read-out: IC50); “Not Active” on Cytochrome P450 2A6; “Not Active” against Leukotriene C4 synthase; “Not Active” in [2]; “Not Active” in data set [3]; “Not Active” on Mu-type opioid receptor. The IC50 result (in data set [4]; in data set [5]; against Melanocortin receptor 3; in data set [6]; in data set [7]; in [8]) was “Not Active” in each case. In addition, the IC50 entry (in data set [9]; against Insulin receptor) was “Not Active” throughout. For the same compound, the Ki (usually a dissociation constant, usually derived from enzyme kinetics or from competition with a known ligand) in data set [1] (read-out: Ki) is 22.3 µM; at Cytochrome P450 2A6, “Not Active”; in data set [2], “Not Active”; in [4], “Not Active”; in data set [8], “Not Active”.

As for `NC(=O)c1ncn([C@@H]2O[C@H](CO)[C@@H](O)[C@H]2O)n1` [RIBAVIRIN], the IC50 entry (in data set [1]; on Cytochrome P450 2A6; at Leukotriene C4 synthase; in [2]; in data set [3]; at Mu-type opioid receptor) was “Not Active” in each case. Moreover, the IC50 entry (in [4]; in [5]; on Melanocortin receptor 3; in data set [6]; in data set [7]; in data set [8]) was “Not Active” in each case. In addition, the IC50 result (in [9]; against Insulin receptor) was “Not Active” in each case. In addition, the Ki entry (in data set [1]; on Cytochrome P450 2A6; in data set [2]; in data set [4]; in data set [8]) was “Not Active” throughout.
